Measurements published in patent publication US20110045101A1, “FUNGICIDAL SUBSTITUTED AZOLES” (E.I. Du Pont De Nemours and Company, priority 2009, published 2011).
Marks after values point to notes of the source that are not given here.

Legend:
Format in all cases: in vivo
Details in all cases: 100 = 100% disease control
[1] = test system: Alternaria solani; assay: Test D: tomato early blight, sprayed the day before inoculation, visual disease rating
Procedure, shortened: (§1)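 Ratings reflect a 200 ppm spray (≈500 g/ha) unless marked as 40 ppm. Plants were sprayed to run-off. The spray suspension was acetone/purified water 50/50 containing 250 ppm Trem 014, after first dissolving compound in acetone at 3% of final volume.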

[2] = test system: Septoria tritici; assay: Test G: wheat leaf blotch on wheat seedlings, sprayed the day before inoculation, visual disease rating
Procedure, shortened: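 Wheat seedlings were sprayed to run-off with test suspension (acetone/water plus surfactant), generally 200 ppm (≈500 g/ha), or 40 ppm where marked. Septoria tritici spores were inoculated the next day; plants were held 48 h at 24°C in saturated atmosphere, then 19 days at 20°C before visual disease rating.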

[3] = test system: Botrytis cinerea; assay: Test C: tomato Botrytis on tomato seedlings, sprayed the day before inoculation, visual disease rating
Procedure, shortened: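 Disease scored by eye on tomato seedlings inoculated with Botrytis cinerea a day after treatment. Treatment was a run-off spray at 200 ppm (equivalent to 500 g/ha), or 40 ppm where marked, in acetone/water carrying 250 ppm Trem 014.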

[4] = test system: Septoria nodorum; assay: Test F: wheat glume blotch on wheat seedlings, sprayed the day before inoculation, visual disease rating
Procedure, shortened: as §1

[5] = test system: Erysiphe graminis f. sp. tritici; assay: Test J: wheat powdery mildew on wheat seedlings, sprayed the day before inoculation, visual disease rating
Procedure, shortened: as §1

[6] = test system: Puccinia recondita f. sp. tritici; assay: Test I: wheat leaf rust on wheat seedlings, sprayed the day before inoculation, visual disease rating
Procedure, shortened: as §1

[7] = test system: Puccinia recondita f. sp. tritici; assay: Test H: wheat leaf rust, test suspension sprayed after inoculation of wheat seedlings, visual disease rating
Procedure, shortened: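 Wheat seedlings inoculated with P. recondita spores, held 24 h saturated at 20 °C, then 2 days in growth chamber at 20 °C; compound suspension (acetone/water with Trem 014) sprayed to run-off afterwards. Rated visually; 200 ppm (≈500 g/ha) unless marked *, which denotes 40 ppm.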

[8] = 200 ppm, 0 = no control relative to controls

SMILES	Test D disease control rating [1, 8]	Test G disease control rating [2, 8]	Test C disease control rating [3, 8]	Test F disease control rating [4, 8]	Test J disease control rating [5, 8]	Test I disease control rating [6, 8]	Test H disease control rating [7, 8]	also measured
COC(=O)c1ccc(-n2cnc(N(C)C)c2-c2c(F)cccc2F)cc1 [compound 633]								Test D disease control rating ([1]; 40 ppm (marked *)): 0* %; Test G disease control rating ([2]; 40 ppm (marked *)): 0* %; Test C disease control rating ([3]; 40 ppm (marked *)): 0* %; Test F disease control rating ([4]; 40 ppm (marked *)): 0* %; Test J disease control rating ([5]; 40 ppm (marked *)): 0* %; Test I disease control rating ([6]; 40 ppm (marked *)): 44* %; Test H disease control rating ([7]; 40 ppm (marked *)): 0* %
COc1ccc(F)c(-c2c(Cl)nc(Br)n2Cc2ccc(Cl)cc2)c1F [compound 289]								Test D disease control rating ([1]; 200 ppm, 0 = no control): 96%; Test G disease control rating ([2]; 200 ppm, 0 = no control): 94%; Test C disease control rating ([3]; 200 ppm, 0 = no control): 100%; Test F disease control rating ([4]; 200 ppm, 0 = no control): 0%; Test J disease control rating ([5]; 200 ppm, 0 = no control): 97%; Test I disease control rating ([6]; 200 ppm, 0 = no control): 94%; Test H disease control rating ([7]; 200 ppm, 0 = no control): 11%
Cn1c(-c2c(Br)nc(Br)n2-c2ccc(Cl)cc2)nc(Br)c1Br [compound 372]	0%	91%	99%	0%	0%	74%	0%	
Cc1nc(Br)c(-c2ccc(Cl)c(F)c2)n1-c1ccc(F)cc1Cl [compound 340]	98%	92%	99%	0%	95%	94%	0%	
Cc1nc(Cl)c(-c2c(F)cc(F)cc2F)n1-c1cccc(F)c1 [compound 370]	100%	89%	99%	87%	100%	100%	100%	
COc1ccc(F)c(-c2c(Br)nc(Cl)n2-c2ccc(C)cc2)c1F [compound 517]	100%	98%	100%	96%	100%	99%	0%	
COc1cc(F)c(-c2c(Cl)nc(Cl)n2Cc2ccc(C)cc2)c(F)c1 [compound 291]								Test D disease control rating ([1]; 200 ppm, 0 = no control): 80%; Test G disease control rating ([2]; 200 ppm, 0 = no control): 94%; Test C disease control rating ([3]; 200 ppm, 0 = no control): 99%; Test F disease control rating ([4]; 200 ppm, 0 = no control): 0%; Test J disease control rating ([5]; 200 ppm, 0 = no control): 94%; Test I disease control rating ([6]; 200 ppm, 0 = no control): 98%; Test H disease control rating ([7]; 200 ppm, 0 = no control): 6%
Cc1ncn(-c2ccc(Cl)c(F)c2)c1-c1cccnc1Cl [compound 348]	0%	8%	0%	0%	27%	0%	0%	
Fc1cc(F)c(-c2c(Cl)nc(Br)n2-c2cccc(OC(F)(F)F)c2)c(F)c1 [compound 605]	0%	73%	19%	0%	94%	0%	0%	
COc1cc(F)c(-c2c(C)nc(C)n2-c2ccc(C)cc2)c(F)c1 [compound 521]								Test D disease control rating ([1]; 40 ppm (marked *)): 99* %; Test G disease control rating ([2]; 40 ppm (marked *)): 98* %; Test C disease control rating ([3]; 40 ppm (marked *)): 99* %; Test F disease control rating ([4]; 40 ppm (marked *)): 0* %; Test J disease control rating ([5]; 40 ppm (marked *)): 90* %; Test I disease control rating ([6]; 40 ppm (marked *)): 98* %; Test H disease control rating ([7]; 40 ppm (marked *)): 0* %
Cc1ccc(-n2c(Cl)nc(C)c2-c2c(F)ccc(F)c2Cl)cc1 [compound 495]								Test D disease control rating ([1]; 40 ppm (marked *)): 99* %; Test G disease control rating ([2]; 40 ppm (marked *)): 31* %; Test C disease control rating ([3]; 40 ppm (marked *)): 97* %; Test F disease control rating ([4]; 40 ppm (marked *)): 0* %; Test J disease control rating ([5]; 40 ppm (marked *)): 100* %; Test I disease control rating ([6]; 40 ppm (marked *)): 99* %; Test H disease control rating ([7]; 40 ppm (marked *)): 0* %
CCOc1ccc(F)c(-c2c(Cl)ncn2-c2cccc(F)c2)c1F [compound 661]	99%	99%	99%	87%	100%	100%	0%	
COc1ccc(F)c(-c2c(Cl)nc(C)n2-c2ccc(Cl)c(C)c2)c1F [compound 425]	100%	100%	100%	100%	100%	96%	0%	
Fc1cc(-n2c(Cl)nc(Cl)c2-c2cncc(Br)c2)ccc1Cl [compound 486]	0%	0%	66%	0%	0%	14%	0%	
Cc1nc(Cl)c(-c2ccc(Cl)c(F)c2)n1-c1ccc(F)cc1Cl [compound 421]	98%	100%	100%	0%	100%	100%	0%	
COc1ccc(-n2c(Cl)nc(Cl)c2-c2c(F)cccc2F)c(Cl)n1 [compound 620]	99%	98%	100%	90%	99%	100%	100%	
Fc1cccc(-n2cnc(Cl)c2-c2c(F)cc(F)cc2F)c1 [compound 362]	99%	86%	100%	0%	49%	83%	0%	
Cc1nc(Cl)c(-c2c(F)ccc(F)c2F)n1Cc1ccc(Cl)cc1 [compound 293]								Test D disease control rating ([1]; 200 ppm, 0 = no control): 91%; Test G disease control rating ([2]; 200 ppm, 0 = no control): 95%; Test C disease control rating ([3]; 200 ppm, 0 = no control): 99%; Test F disease control rating ([4]; 200 ppm, 0 = no control): 0%; Test J disease control rating ([5]; 200 ppm, 0 = no control): 100%; Test I disease control rating ([6]; 200 ppm, 0 = no control): 99%; Test H disease control rating ([7]; 200 ppm, 0 = no control): 6%
COc1cc(Cl)c(-c2c(Cl)nc(Cl)n2-c2ccc(Cl)c(F)c2)c(Cl)c1 [compound 437]	80%	100%	99%	60%	98%	98%	0%	
COc1cc(F)c(-c2c(C)nc(C)n2-c2ccc(F)cc2)c(F)c1 [compound 522]								Test D disease control rating ([1]; 40 ppm (marked *)): 100* %; Test G disease control rating ([2]; 40 ppm (marked *)): 98* %; Test C disease control rating ([3]; 40 ppm (marked *)): 100* %; Test F disease control rating ([4]; 40 ppm (marked *)): 0* %; Test J disease control rating ([5]; 40 ppm (marked *)): 96* %; Test I disease control rating ([6]; 40 ppm (marked *)): 99* %; Test H disease control rating ([7]; 40 ppm (marked *)): 0* %
